Laboratory results as given in publication PMC9025851, “Polyphenolic Compounds from Lespedeza bicolor Protect Neuronal Cells from Oxidative Stress” (Antioxidants, 2022).

Legend:
[1] = system: PQ-treated Neuro-2a cells; assay: PQ-induced neurotoxicity, cell viability (MTT); format: cell-based, murine; conditions: PQ 1 mM
Procedure: After 24 h of adhesion, Neuro-2a cells (1 × 10^4 cells/well) were treated with polyphenolic compounds at concentrations of 0.01–10 μM for 1 h. Subsequently, 1 mM of PQ, 10 μM rotenone or 80 μM of 6-OHDA (Sigma-Aldrich, St. Louis, MO, USA) were added. We used MTT assay to determine the percentage of living cells (cell viability) after 24 h of incubation. Cells incubated without inductors or with inductors were used as positive and negative control, respectively. The results are presented as percentages of the positive control value.

[2] = design: method as in PMID 31004693; conditions: 30 min; mean ± SEM, n = 3; previously published; read-out: DPPH-Scavenging Effect SC50; cited from earlier work
[3] = Cytotoxicity, MTT assay; format: cell-based, murine; conditions: mouse, Neuro-2a neuroblastoma cells, read-out: Cytotoxic activity EC50
Procedure: The murine neuroblastoma cell line Neuro-2a (CCL-131) was purchased from American Type Culture Collection (ATCC®) (Manassas, VA, USA). Cells were cultured in Dulbecco’s Modified Eagle Medium (Biolot, St. Petersburg, Russia). The medium contained 10% fetal bovine serum (Biolot, St. Petersburg, Russia) and 1% penicillin/streptomycin (Biolot, St. Petersburg, Russia). Cells were incubated at 37 °C in a humidified atmosphere containing 5% (v/v) CO2.
Stock solutions of polyphenolic compounds were prepared in DMSO at a concentration of 10 mM. […]
We incubated Neuro-2a cells (1 × 10^4 cells/well) at 37 °C in a CO2 incubator for 24 h until they formed an adherent monolayer. Then, 20 μL of the tested solution was loaded onto the cells and incubated for 24 h. After incubation, the medium containing the polyphenolic test compounds was replaced by 100 μL of fresh medium. Then, we added 10 μL of MTT (3-(4,5-dimethylthiazol-2-yl)-2,5-diphenyltetrazolium bromide) (Sigma-Aldrich, St. Louis, MO, USA) stock solution (5 mg/mL) to each well and incubated the microplate for 4 h. Then, 100 μL of SDS-HCl solution (1 g SDS/10 mL dH2O/17 μL 6 M HCl) was added to each well, followed by incubation for 18 h. We measured the absorbance of the converted dye formazan on a Multiskan FC microplate photometer (Thermo Scientific, Waltham, MA, USA) at a wavelength of 570 nm. We performed all experiments in triplicate and expressed the cytotoxic activity as percent of living cells.

[4] = system: PQ-treated Neuro-2a cells; assay: ROS level in PQ-treated cells (H2DCF-DA); format: cell-based, murine; conditions: PQ 1 mM, 3 h
Procedure: After 24 h of adhesion, Neuro-2a cells (1 × 10^4 cells/well) were incubated with compounds (0.01–10 µM) for 1 h. Then, we added rotenone (10 μM), 6-OHDA (80 μM), or PQ (1 mM) to each well and incubated cells for 1 h, 1 h, or 3 h, respectively. To evaluate the level of intracellular ROS, we added 20 µL of 2,7-dichlorodihydrofluorescein diacetate solution ([…], H2DCF-DA, Molecular Probes, Eugene, OR, USA) to each well, so that the final concentration was 10 µM, and incubated the microplate at 37 °C for an additional 30 min. Quercetin was used as a reference compound.

[5] = design: method as in PMID 31004693; conditions: mean ± SEM, n = 3; previously published; cited from earlier work
[6] = system: rats; design: method as in PMID 31693927, doi:10.1016/j.jff.2017.05.002; conditions: cited from earlier work
[7] = system: TNF-α, IL-1, and IL-6; design: method as in PMID 21708076; conditions: cited from earlier work
[8] = system: LPS- and Aβ-induced neurotoxicity; design: method as in PMID 21708076; conditions: cited from earlier work
[9] = system: cerebral global-ischemia model; conditions: cited from earlier work

| Structure (SMILES) | Effect on percentage of living cells after treatment with PQ ([1]; compounds 0.01–10 μM, 1 h pre-treatment, MTT after 24 h) | Concentration range in which the neuroprotective effect was detected ([1]; MTT) [µM] | Increase in percentage of living cells after treatment with PQ ([1]; compound 1 μM, MTT) [%] | EC50 [2] [µM] | EC50 at 24 h [3] [µM] | Effect on ROS level in PQ-treated cells [4] | FRAP [5] | Mitochondrial activity [6] | Oxidative stress [6] | Production of inflammatory cytokines TNF-α, IL-1, and IL-6 [7] | Neurotoxicity induced by LPS and amyloid-beta peptide (Aβ) [8] | Neuroprotection in a cerebral global-ischemia model [9] |
| --- | --- | --- | --- | --- | --- | --- | --- | --- | --- | --- | --- | --- |
| CC(C)=CCC/C(C)=C/Cc1c(O)c(O)cc2c1O[C@H]1c3cc(CC=C(C)C)c(O)cc3OC[C@@H]21 [Compound 6, (6aR,11aR)-2-isoprenyl-6a,11a-dihydrolespedezol A2] | significantly increased | 0.01 to 1 | 17 | 21.8 ± 2 | 40.6 | slightly decreased | 1.43 ± 0.06 mol (Fe^2+)/mol (polyphenolic compound X) |  |  |  |  |  |
| O=c1oc2cc(O)ccc2c2oc3cc(O)ccc3c12 [Coumestrol] |  |  |  |  |  |  |  | modulated | decreased | inhibited | attenuated | effective neuroprotection |
